Reference: patent US7282507B2, “Indole derivatives as selective androgen receptor modulators (SARMS)” (Janssen Pharmaceutica N.V., priority 2004, dated 2007)
Values joined by “and” are separate entries in the source; they are usually repeats but may differ in a detail not shown here. Equal entries are not always repeated. Where two headings read alike, the source gives them in different places.

What was measured:
[1] = test system: testosterone-enhanced ventral prostate and seminal vesicle weights; assay: Ventral Prostate and Seminal Vesicle Weight in vivo Assay; parameters: species or system rat; conditions: immature castrated male Sprague Dawley rats, once daily for five days, usually orally 40 mg/kg, with testosterone propionate 2 mg/kg s.c. Further: key: 'active' if the non weight adjusted prostate weight was ≦40 mg or the % Inhibition prostate weight, body weight adjusted was ≧40% @ 2 mg/day dosage; ID50's, if determined, of ≦15 mg/day also indicated an 'active' compound; listed herein as 'inactive' as they did not meet the specified criteria defined above.
Method in brief: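 Wet weights of ventral prostate and seminal vesicles were taken on day six. Castrated immature male Sprague Dawley rats had received five daily doses of testosterone propionate (2 mg/kg s.c.) together with test compound, typically 40 mg/kg orally. Activity was scored from absolute prostate weight or body-weight-adjusted % inhibition.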

[2] = molecular target: T1, androgen receptor (AdEasy+rAR, L929 cells) (Rattus norvegicus, UniProt P15207); assay: L929 Androgen Receptor Functional Assay, Adenovirus Transduction; assay type: cell-based; conditions: for inhibition at 3 µM: L929, antagonist testing with R1881, 3000 nM; for % Activity, L929 androgen receptor functional assay: agonist testing, 3000 nM
T1 construct: expressed in transfected cells; host or cells: L929 cells transduced with adenovirus AdEasy+rAR
T1 sequence (P15207 1-902): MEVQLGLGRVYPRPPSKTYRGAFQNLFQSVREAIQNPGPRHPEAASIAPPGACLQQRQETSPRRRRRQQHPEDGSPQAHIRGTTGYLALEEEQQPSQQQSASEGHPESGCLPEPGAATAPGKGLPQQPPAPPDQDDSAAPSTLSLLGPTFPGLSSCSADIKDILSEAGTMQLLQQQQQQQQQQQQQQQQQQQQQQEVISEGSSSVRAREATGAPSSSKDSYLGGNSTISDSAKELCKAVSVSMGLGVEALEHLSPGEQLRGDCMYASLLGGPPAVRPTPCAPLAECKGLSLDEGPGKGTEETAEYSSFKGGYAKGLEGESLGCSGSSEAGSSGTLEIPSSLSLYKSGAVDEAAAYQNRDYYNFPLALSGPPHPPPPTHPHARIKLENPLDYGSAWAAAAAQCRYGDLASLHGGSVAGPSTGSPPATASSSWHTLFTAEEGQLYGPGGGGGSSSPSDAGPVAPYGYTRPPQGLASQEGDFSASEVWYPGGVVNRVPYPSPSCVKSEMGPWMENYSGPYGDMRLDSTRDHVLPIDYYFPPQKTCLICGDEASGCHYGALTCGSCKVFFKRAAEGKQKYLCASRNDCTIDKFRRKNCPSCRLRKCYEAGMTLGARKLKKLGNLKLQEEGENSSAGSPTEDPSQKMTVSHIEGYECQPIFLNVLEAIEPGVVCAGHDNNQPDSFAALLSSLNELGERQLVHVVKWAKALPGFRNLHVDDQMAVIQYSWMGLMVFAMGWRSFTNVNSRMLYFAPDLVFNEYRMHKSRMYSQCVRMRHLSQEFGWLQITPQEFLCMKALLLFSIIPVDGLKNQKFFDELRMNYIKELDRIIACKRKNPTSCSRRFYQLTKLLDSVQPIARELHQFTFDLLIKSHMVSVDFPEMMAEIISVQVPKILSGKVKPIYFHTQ
Method in brief: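 Luminescent reporter readout after 48 h at 37 °C: rat AR delivered by adenovirus (AdEasy+rAR, moi 1:500) into L929 cells grown without phenol red in charcoal-treated serum. Antagonist wells also received R1881 (2.5× dilution at 2.5 nM).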

[3] = molecular target: T2, androgen receptor (AdEasy+rAR, COS-7 cells) (Rattus norvegicus, UniProt P15207); assay: COS-7 Whole-Cell Androgen Receptor Binding Assay, Adenovirus Transduction; conditions: for inhibition at 3 µM / % Inhibition, COS Binding: concentration of 3000 nM; for % Inhibition, COS Binding: 3 µM
T2 construct: expressed in transfected cells; host or cells: COS-7 cells transduced with adenovirus AdEasy+rAR
T2 sequence (P15207 1-902): T1 sequence (P15207 1-902)
Method: COS-7 cells were plated in 96-well plates at 20,000 cells per well, in a solution of DMEM/F12 (GIBCO) containing 10% (v/v) charcoal-treated fetal bovine serum (Hyclone) and lacking phenol red. The cells were then incubated overnight at 37° C. in 5% (v/v) humidified CO2.
Test compound solutions were prepared by diluting the test compound in 100% (v/v) DMSO, if necessary.
Next, 1 mL of DMEM/F12 lacking phenol red was pipetted into each of the wells of a 2-mL 96-well assay block. […] The wells were carefully mixed by pipette.
In a 15 mL or 50 mL sterile centrifuge tube, a dilution in DMEM/F12 of the adenovirus AdEasy+rAR at a moi of 1:50 per well was prepared.
The medium was removed from the 96-well plates by inversion and the plates dried very briefly, inverted, on a sterile towel. As soon as possible after medium removal, 40 μL of the diluted test compound was added to each well, in duplicate. […] The plates were then incubated for 48 hours at 37° C. in 5% (v/v) humidified CO2.
The medium was removed from the above incubated plates by inversion and dried. Each well was then washed with 0.35 mL of 1× PBS. The PBS was then removed from the plates by inversion and the plates dried.
To each well was then added 50 μL of 0.5% (v/v) Triton X-100 (Sigma) in 1× PBS and the plates placed on a rotary shaker for 5 min. The contents of each well were then transferred to an OptiPlate-96 (Packard) scintillation plate. To each well was then added 0.2 mL of Microscint-20 (Packard) and the wells counted on a TopCount (Packard).
Percent inhibition was determined by testing dilutions of the test compound (usually duplicates of 10 μM) in the binding assay. Counts per well were measured and percents of inhibition determined. […] Counts per well were measured and IC50s determined by linear regression.

[4] = read-out: IC50 (nM), COS Binding

SMILES | active / inactive: inhibition of testosterone-enhanced prostate weight [1] | inhibition at 3 µM [2] [%] | % Activity, L929 androgen receptor functional assay [2] [%] | inhibition at 3 µM [3] [%] | IC50 [3, 4] | % Activity, L929 androgen receptor functional assay ([2]; 3 µM) | % Inhibition, L929 androgen receptor functional assay ([2]; antagonist testing with R1881, 3000 nM, 3 µM) [%] | % Inhibition, COS Binding [3] | IC50 ([3]; IC50 (nM), COS Binding) [nM] | IC50 ([2]; antagonist testing with R1881) [nM]
CCCCSCC(C)(O)c1cc2cc([N+](=O)[O-])c(C(F)(F)F)cc2[nH]1 (stereo not shown) [Compound 200] | inactive | 96 | 1 | 97 | – | – | – | – | – | –
CSCC(C)(O)c1cc2cc(Cl)c(C(F)(F)F)cc2n1S(C)(=O)=O (stereo not shown) [Compound 134] | inactive | – | – | – | > 10000 nM | – | – | – | – | –
CCSCC(C)(O)c1[nH]c2cc(C(F)(F)F)c(C#N)cc2c1C (stereo not shown) [Compound 219] | inactive | 103 | −3 | – | 6.2 nM | – | – | – | – | –
CCS(=O)(=O)CC(C)(O)c1cc2cc([N+](=O)[O-])c(C(F)(F)F)cc2[nH]1 (stereo not shown) [Compound 175] | active | – | – | – | > 3000 nM | – | – | – | – | –
CCCS(=O)(=O)CC(C)(O)c1cc2cc([N+](=O)[O-])c(C(F)(F)F)cc2[nH]1 (stereo not shown) [Compound 177] | active | 89 | 2 | 90 | 88 nM | – | – | – | – | –
CCSCC(C)(O)c1[nH]c2cc(C(F)(F)F)c([N+](=O)[O-])cc2c1C#N (stereo not shown) [Compound 242] | inactive | – | – | 92 | 305 nM | – | – | – | – | –
CC(O)(CSCC(F)(F)F)c1cc2cc([N+](=O)[O-])c(C(F)(F)F)cc2[nH]1 (stereo not shown) [Compound 201] | inactive | – | – | – | 340 nM | 2% | 83 | 86% | – | –
CCSCC(C)(O)c1cc2cc([N+](=O)[O-])cc(C(F)(F)F)c2[nH]1 (stereo not shown) [Compound 212] | active | 101 | −3 | 86 | 98 nM | – | – | – | – | –
CN(C)c1ccccc1SCC(C)(O)c1cc2cc(Cl)c(C(F)(F)F)cc2[nH]1 (stereo not shown) [Compound 127] | inactive | – | −5 | – | > 1200 nM | – | – | 41% and 74% | – | –
CC(O)(CSCC(F)(F)F)c1cc2cc(Cl)c(C(F)(F)F)cc2[nH]1 (stereo not shown) [Compound 190] | active | 97 | 1 | 100 | 292 nM | – | – | – | – | –
CC(O)(CSCC(F)(F)F)c1cc2cc(F)c(C(F)(F)F)cc2[nH]1 (stereo not shown) [Compound 189] | inactive | 85 | 3 | 100 | 280 nM | – | – | – | – | –
CCC(O)(CS(=O)(=O)CC(F)(F)F)c1cc2cc([N+](=O)[O-])c(C(F)(F)F)cc2[nH]1 (stereo not shown) [Compound 191] | active | -6 | 2 | 65 | 840 nM | – | – | – | – | –
CC(O)(CSc1ccc(C(=O)O)cc1)c1cc2cc(Cl)c(C(F)(F)F)cc2[nH]1 (stereo not shown) [Compound 133] | inactive | 19 | −4 | 65 | – | – | – | – | > 1500 | –
CSCC(C)(O)c1cc2cc([N+](=O)[O-])c(C(F)(F)F)cc2[nH]1 (racemic) [Compound 139] | active | – | – | 94 | 63 nM and 252 nM | 0% and 1% | – | 97% | – | –
CCSCC(C)(OC)c1cc2cc([N+](=O)[O-])c(C(F)(F)F)cc2[nH]1 (stereo not shown) [Compound 167] | active | – | – | – | > 3000 nM | – | – | – | – | –
CCSCC(C)(O)Cc1cc2cc([N+](=O)[O-])c(C(F)(F)F)cc2[nH]1 (stereo not shown) [Compound 10] | inactive | – | – | – | > 3000 nM | – | – | – | – | –
CCSCC(C)(O)c1cc2cc(C#N)c(Cl)cc2[nH]1 (stereo not shown) [Compound 225] | – | 97 | 1 | 82 | 142 nM | – | – | – | – | 229
O=[N+]([O-])c1cc2cc(C3(O)CCSCC3)[nH]c2cc1C(F)(F)F [Compound 17] | inactive | – | – | – | > 1500 nM | – | – | – | – | –
CCSCC(C)(O)c1[nH]c2cc(C(F)(F)F)c([N+](=O)[O-])cc2c1C#N (single isomer, unassigned) [Compound 247] | inactive | – | – | 90 | 60.7 nM | – | – | – | – | –
COc1ccc(S(=O)(=O)CC(C)(O)c2cc3cc(Cl)c(C(F)(F)F)cc3n2S(C)(=O)=O)cc1 (stereo not shown) [Compound 128] | – | 44 | −4 | 21 | – | – | – | – | > 1500 | –
CCSCC(C)(CO)c1cc2cc([N+](=O)[O-])c(C(F)(F)F)cc2[nH]1 (stereo not shown) [Compound 11] | inactive | – | – | – | > 3000 nM | – | – | – | – | –
